Where “and” joins values, the source holds several entries; their conditions need not be identical. Equal entries are not always repeated. Inconclusive results and toxic doses are left out. How the source made its calls: active means survival T/C of 150% or more; inactive means T/C below 125% in these data.
Test system: P388 leukemia ip, CD2F1 mice, survival T/C
Assay: NCI In Vivo Anticancer Drug Screen. Data for tumor model P388 Leukemia (intraperitoneal) in CD2F1 (CDF1) mice
Details: endpoint: median survival time, higher = longer survival
In short: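 Mice carrying the transplanted tumor received test compound or vehicle. Survival was recorded in each group, and the value is the treated-group measurement divided by that of the vehicle-treated control group.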

[1] = dose: 60.0 mg/kg/injection, schedule: Q01DX005 (ip), vehicle: saline with Tween-80
[2] = dose: 50.0 mg/kg/injection, schedule: Q01DX005 (ip), vehicle: saline with Tween-80
[3] = dose: 100.0 mg/kg/injection, schedule: Q01DX005 (ip), vehicle: saline with Tween-80
[4] = dose: 200.0 mg/kg/injection, schedule: Q01DX005 (ip), vehicle: saline with Tween-80
[5] = dose: 100.0 mg/kg/injection, schedule: Q01DX001 (ip), vehicle: Klucel (hydroxypropylcellulose) (HPC)
[6] = dose: 200.0 mg/kg/injection, schedule: Q01DX001 (ip), vehicle: Klucel (hydroxypropylcellulose) (HPC)
[7] = dose: 120.0 mg/kg/injection, schedule: Q01DX005 (ip), vehicle: saline with Tween-80
[8] = dose: 240.0 mg/kg/injection, schedule: Q01DX005 (ip), vehicle: saline with Tween-80
[9] = dose: 20.0 mg/kg/injection, schedule: Q01DX009 (ip), vehicle: saline with Tween-80
[10] = dose: 50.0 mg/kg/injection, schedule: Q01DX005 (ip), vehicle: saline
[11] = dose: 100.0 mg/kg/injection, schedule: Q01DX005 (ip), vehicle: saline
[12] = dose: 200.0 mg/kg/injection, schedule: Q01DX005 (ip), vehicle: saline
[13] = dose: 100.0 mg/kg/injection, schedule: Q01DX009 (ip), vehicle: saline with Tween-80
[14] = dose: 200.0 mg/kg/injection, schedule: Q01DX009 (ip), vehicle: saline with Tween-80
[15] = dose: 100.0 mg/kg/injection, schedule: Q04DX002 (ip), vehicle: saline with Tween-80
[16] = dose: 200.0 mg/kg/injection, schedule: Q04DX002 (ip), vehicle: saline with Tween-80

Measured: T/C

COC1=CC(=O)C(OC)=C(C2C(=O)N(C)c3ccccc32)C1=O (centres undefined)
inactive: dose: 7.5 mg/kg/injection, schedule: Q01DX005 (ip), vehicle: saline 111 % of control | dose: 15.0 mg/kg/injection, schedule: Q01DX005 (ip), vehicle: saline 121 % of control | [1] 117 % of control

CCN1N=Nc2ccccc2NC1=O
inactive: [2] 101 % of control | [3] 91 % of control | [4] 96 % of control

O=C1c2ccccc2C2(O)C(=O)c3ccccc3C12 (centres undefined)
inactive: [5] 102 % of control | [6] 105 % of control | dose: 400.0 mg/kg/injection, schedule: Q01DX001 (ip), vehicle: Klucel (hydroxypropylcellulose) (HPC) 108 % of control

O=C1OC(O)c2cccc3cccc1c23 (centres undefined)
inactive: dose: 60.0 mg/kg/injection, schedule: Q01DX005 (ip), vehicle: Klucel (hydroxypropylcellulose) (HPC) 98 % of control | dose: 120.0 mg/kg/injection, schedule: Q01DX005 (ip), vehicle: Klucel (hydroxypropylcellulose) (HPC) 100 % of control | dose: 240.0 mg/kg/injection, schedule: Q01DX005 (ip), vehicle: Klucel (hydroxypropylcellulose) (HPC) 94 % of control

COc1cc(NS(=O)(=O)c2ccc(NC(C)c3ccc4cccnc4c3O)cc2)nc(OC)n1 (centres undefined)
inactive: [1] 98 % of control | [7] 99 % of control | [8] 96 % of control

C=C1C(=O)OC2/C=C(/CO)C3(O)CC(O)C(C)(CC(OC(=O)/C(C)=C/C)C12)O3 (centres undefined)
inactive: dose: 10.0 mg/kg/injection, schedule: Q01DX009 (ip), vehicle: saline with Tween-80 114 % of control and 117 % of control | [9] 124 % of control

N=C(N)c1ccc(OCCCCOc2ccc(N)cc2Cl)cc1
inactive: dose: 30.0 mg/kg/injection, schedule: Q01DX005 (ip), vehicle: saline with Tween-80 102 % of control | [1] 106 % of control and 97 % of control | [7] 105 % of control

C=C(C)CCN1C(=O)NC(C)(C)C1O (centres undefined)
inactive: [10] 100 % of control | [11] 107 % of control | [12] 101 % of control

C[C@H]1C(=O)OCN1S(=O)(=O)C(C)(C)C
inactive: [1] 101 % of control | [7] 104 % of control | [8] 102 % of control

O=C(O)/C=C/C(=O)NCc1ccco1
inactive: [13] 100 % of control | dose: 100.0 mg/kg/injection, schedule: Q04DX003 (ip), vehicle: saline with Tween-80 90 % of control | [14] 109 % of control | dose: 200.0 mg/kg/injection, schedule: Q04DX003 (ip), vehicle: saline with Tween-80 95 % of control | dose: 400.0 mg/kg/injection, schedule: Q01DX009 (ip), vehicle: saline with Tween-80 100 % of control | dose: 400.0 mg/kg/injection, schedule: Q04DX003 (ip), vehicle: saline with Tween-80 100 % of control

COc1cccc2c1C(=O)c1c(O)c3c(c(O)c1C2=O)C(OC)C(O)(C(C)=O)CC3OC1CC(N)C(O)C(C)O1 (centres undefined)
inactive: dose: 3.13 mg/kg/injection, schedule: Q04DX003 (ip), vehicle: water 100 % of control | dose: 6.25 mg/kg/injection, schedule: Q04DX003 (ip), vehicle: water 100 % of control | dose: 12.5 mg/kg/injection, schedule: Q04DX003 (ip), vehicle: water 108 % of control | dose: 25.0 mg/kg/injection, schedule: Q04DX003 (ip), vehicle: water 115 % of control | dose: 50.0 mg/kg/injection, schedule: Q04DX003 (ip), vehicle: water 115 % of control

CCN1NC1C (centres undefined)
inactive: [10] 105 % of control | [11] 97 % of control | [12] 97 % of control

COC(=O)C1=C(\OC)c2c(ccc(OC)c2OC)C(=O)N2CCc3cc4c(cc3\C2=C\1C(=O)OC)OCO4
inactive: dose: 50.0 mg/kg/injection, schedule: Q04DX002 (ip), vehicle: saline with Tween-80 103 % of control | [15] 105 % of control | [16] 94 % of control

C=C1C(=O)OC2C1C(OC(=O)/C(C)=C\C)CC1(CO1)C1C(O)C=C(C)C21O (centres undefined)
inactive: dose: 25.0 mg/kg/injection, schedule: Q04DX003 (ip), vehicle: saline with Tween-80 112 % of control | dose: 50.0 mg/kg/injection, schedule: Q04DX003 (ip), vehicle: saline with Tween-80 113 % of control

[CH2+][B-]1(C)n2cc(Br)c[n+]2[B-](C)(C)[n+]2cc(Br)cn21
inactive: [1] 102 % of control | [7] 103 % of control | [8] 103 % of control

O=C1OC(CCc2ccccc2O)c2ccccc21 (centres undefined)
inactive: [2] 89 % of control | [3] 99 % of control | [4] 93 % of control

CCCCCCCCCCCCCCCc1cccc(O)c1C(=O)O
inactive: dose: 12.5 mg/kg/injection, schedule: Q01DX005 (ip), vehicle: distilled water + Tween-80 106 % of control | [9] 113 % of control | dose: 25.0 mg/kg/injection, schedule: Q01DX005 (ip), vehicle: distilled water + Tween-80 102 % of control | dose: 40.0 mg/kg/injection, schedule: Q01DX009 (ip), vehicle: saline with Tween-80 111 % of control | dose: 50.0 mg/kg/injection, schedule: Q01DX005 (ip), vehicle: distilled water + Tween-80 107 % of control | dose: 80.0 mg/kg/injection, schedule: Q01DX009 (ip), vehicle: saline with Tween-80 109 % of control | dose: 100.0 mg/kg/injection, schedule: Q01DX005 (ip), vehicle: distilled water + Tween-80 117 % of control

CN(C)c1ccc(/C=C2/SC(=S)NC2=O)cc1
inactive: dose: 25.0 mg/kg/injection, schedule: Q01DX005 (ip), vehicle: saline with Tween-80 93 % of control | [2] 90 % of control | [3] 87 % of control

N#CC1OC(COC(=O)c2ccccc2)C(OC(=O)c2ccccc2)C1OC(=O)c1ccccc1 (centres undefined)
inactive: dose: 12.5 mg/kg/injection, schedule: Q01DX009 (ip), vehicle: distilled water + Tween-80 90 % of control | dose: 25.0 mg/kg/injection, schedule: Q01DX009 (ip), vehicle: distilled water + Tween-80 89 % of control | dose: 50.0 mg/kg/injection, schedule: Q01DX009 (ip), vehicle: distilled water + Tween-80 88 % of control | dose: 50.0 mg/kg/injection, schedule: Q01DX009 (ip), vehicle: saline with Tween-80 99 % of control | dose: 100.0 mg/kg/injection, schedule: Q01DX009 (ip), vehicle: distilled water + Tween-80 98 % of control | [13] 94 % of control | dose: 200.0 mg/kg/injection, schedule: Q01DX009 (ip), vehicle: distilled water + Tween-80 101 % of control | [14] 94 % of control

CCOC(=O)C1CC1c1c(C)c2cc3[nH]c(cc4nc(cc5nc(cc1[nH]2)C(C)=C5CCC(=O)OC)C(CCC(=O)OC)=C4C)c(C)c3C1CC1C(=O)OCC (centres undefined)
inactive: [2] 93 % of control | [3] 86 % of control

c1ccc(-c2nsc3ccccc23)cc1
inactive: dose: 50.0 mg/kg/injection, schedule: Q01DX005 (ip), vehicle: Klucel (hydroxypropylcellulose) (HPC) 99 % of control | dose: 100.0 mg/kg/injection, schedule: Q01DX005 (ip), vehicle: Klucel (hydroxypropylcellulose) (HPC) 106 % of control | dose: 200.0 mg/kg/injection, schedule: Q01DX005 (ip), vehicle: Klucel (hydroxypropylcellulose) (HPC) 101 % of control

Cc1ccc(-n2c3nc(=O)n(C)c(=O)c-3nc3ccccc32)cc1C
inactive: [5] 95 % of control | [6] 92 % of control

Cc1c(-c2ccccc2)ccnc1/C=N/NS(=O)(=O)c1ccccc1
inactive: dose: 50.0 mg/kg/injection, schedule: Q01DX009 (ip), vehicle: other 103 % of control | dose: 100.0 mg/kg/injection, schedule: Q01DX009 (ip), vehicle: other 97 % of control | dose: 200.0 mg/kg/injection, schedule: Q01DX009 (ip), vehicle: other 96 % of control

CN1CCC(c2ccccc2)C(OC(=O)c2ccccc2)C1 (centres undefined)
inactive: dose: 25.0 mg/kg/injection, schedule: Q01DX005 (ip), vehicle: saline 110 % of control | [10] 111 % of control | [11] 100 % of control

NC(=O)NCCSC1(SCCNC(N)=O)CCCCC1
inactive: dose: 50.0 mg/kg/injection, schedule: Q01DX009 (ip), vehicle: Klucel (hydroxypropylcellulose) (HPC) 107 % of control | dose: 100.0 mg/kg/injection, schedule: Q01DX009 (ip), vehicle: Klucel (hydroxypropylcellulose) (HPC) 103 % of control | dose: 200.0 mg/kg/injection, schedule: Q01DX009 (ip), vehicle: Klucel (hydroxypropylcellulose) (HPC) 100 % of control | dose: 400.0 mg/kg/injection, schedule: Q01DX009 (ip), vehicle: Klucel (hydroxypropylcellulose) (HPC) 99 % of control

O=C(CC(=NCCN=C(CC(=O)c1ccccc1)c1ccccc1)c1ccccc1)c1ccccc1.[Cu]
inactive: [15] 98 % of control | [16] 96 % of control | dose: 400.0 mg/kg/injection, schedule: Q04DX002 (ip), vehicle: saline with Tween-80 95 % of control

From PubChem BioAssay AID330 (DTP/NCI, 2004)
